The source made the active and inactive calls.
Experiments:
[1] = cytotoxicity in HEK-293T cells, dose response, cytotoxicity control for TCR NF-kB inhibitor project, luminescence, T-cell screen hits (AID 489026); format: functional, cell-based;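 further: cells exposed to compound about 14 hours before the viability readout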
[2] = CEM21 lymphoblast cell cytotoxicity, dose response, cytotoxicity control for viral fusion inhibitor project, CellTiter-Glo luminescence, cherry-picked (AID 652042); format: functional, cell-based;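 further: potency for signal decrease meaning cytotoxicity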
Paired box protein Pax-8 = Paired box protein Pax-8 (Homo sapiens, UniProt Q06710); assay: inhibitors of PAX8-driven TPO luciferase reporter, dose response, RMG-I cells, cherry-pick (AID 687027); format: functional, cell-based;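 further: luciferase reporter driven by Pax8 target thyroperoxidase promoter measured by SteadyGlo luminescence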
[3] = inhibitors of clade B AD8 Env fusion, dose response, cell-based, cherry-pick (AID 652062); format: functional;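 further: luciferase signal from cell-cell fusion driven by HIV-1 clade B AD8 Env; potency is for inhibitors of fusion seen as a drop in luminescence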
[4] = microbe, parasite or virus in culture; format: functional; conditions: Mycobacterium tuberculosis
Fatty acid synthase [5] = biological target: T1, Fatty acid synthase (Homo sapiens, UniProt P49327); assay: FAS thioesterase domain inhibitors, dose response, biochemical, endpoint fluorescence intensity, uHTS hits (AID 624327); format: functional;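 further: fluorescence from hydrolysis of an O-methyl fluorescein acyl ester substrate by the enzyme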
[6] = HeLa cell cytotoxicity, dose response, cytotoxicity control for MgcRacGAP inhibitor project (AID 624300); format: functional
[7] = biological target: T2, Rac GTPase-activating protein 1 (Homo sapiens, UniProt Q9H0H5); assay: MgcRacGAP GTPase-activating activity inhibitors, confirmation, biochemical, ADP Hunter fluorescence, primary and confirmatory (AID 624330); format: functional
T2 sequence (Q9H0H5 whole entry): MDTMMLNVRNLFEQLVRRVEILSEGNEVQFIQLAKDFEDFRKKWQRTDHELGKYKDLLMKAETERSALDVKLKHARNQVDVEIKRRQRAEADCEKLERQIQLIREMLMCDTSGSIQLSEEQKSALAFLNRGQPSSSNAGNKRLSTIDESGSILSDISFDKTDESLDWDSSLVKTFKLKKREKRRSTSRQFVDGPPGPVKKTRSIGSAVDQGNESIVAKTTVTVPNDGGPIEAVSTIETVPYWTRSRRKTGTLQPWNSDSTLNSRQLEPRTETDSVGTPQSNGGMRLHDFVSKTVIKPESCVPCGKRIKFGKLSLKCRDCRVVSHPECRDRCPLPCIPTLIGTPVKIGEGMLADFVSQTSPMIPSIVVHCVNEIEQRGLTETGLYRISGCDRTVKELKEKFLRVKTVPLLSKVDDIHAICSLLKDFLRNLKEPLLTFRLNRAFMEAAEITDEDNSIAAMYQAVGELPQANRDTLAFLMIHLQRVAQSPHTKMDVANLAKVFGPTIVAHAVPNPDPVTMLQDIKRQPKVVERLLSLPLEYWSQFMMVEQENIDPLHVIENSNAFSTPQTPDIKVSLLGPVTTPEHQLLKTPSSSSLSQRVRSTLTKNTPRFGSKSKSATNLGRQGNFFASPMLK

Fatty acid synthase [8] = biological target: T1, Fatty acid synthase; assay: FAS thioesterase domain inhibitors, dose response, biochemical, kinetic fluorescence intensity (AID 624326); format: functional;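 further: rate of fluorescence rise from hydrolysis of a fluorogenic O-methyl fluorescein ester substrate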
[9] = biological target: T3, Endoribonuclease toxin MazF (Escherichia coli K-12, UniProt P0AE70); assay: MazF toxin RNase activators, dose response, biochemical, fluorescence, single-stranded RNA substrate, uHTS hits (AID 588481); format: functional
T3 sequence (P0AE70 whole entry): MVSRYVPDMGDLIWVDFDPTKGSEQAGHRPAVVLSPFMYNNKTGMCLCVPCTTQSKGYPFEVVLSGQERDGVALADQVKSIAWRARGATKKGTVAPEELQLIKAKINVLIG

[10] = biological target: T3, Endoribonuclease toxin MazF; assay: fluorescent RNA oligo signal without MazF, dose response, counter-screen for MazEF activator project, biochemical, fluorescence, single-stranded RNase substrate (AID 588502); format: functional
[11] = biological target: T4, Corticotropin-releasing factor receptor 2/Corticotropin-releasing factor-binding protein (Homo sapiens, UniProt P24387+Q13324); assay: Dose Response confirmation of uHTS hits for small molecule antagonists of the CRF-binding protein and CRF-R2 receptor complex.; format: functional; conditions: read-out: IC50_Mean
T4 sequence (Q13324 whole entry): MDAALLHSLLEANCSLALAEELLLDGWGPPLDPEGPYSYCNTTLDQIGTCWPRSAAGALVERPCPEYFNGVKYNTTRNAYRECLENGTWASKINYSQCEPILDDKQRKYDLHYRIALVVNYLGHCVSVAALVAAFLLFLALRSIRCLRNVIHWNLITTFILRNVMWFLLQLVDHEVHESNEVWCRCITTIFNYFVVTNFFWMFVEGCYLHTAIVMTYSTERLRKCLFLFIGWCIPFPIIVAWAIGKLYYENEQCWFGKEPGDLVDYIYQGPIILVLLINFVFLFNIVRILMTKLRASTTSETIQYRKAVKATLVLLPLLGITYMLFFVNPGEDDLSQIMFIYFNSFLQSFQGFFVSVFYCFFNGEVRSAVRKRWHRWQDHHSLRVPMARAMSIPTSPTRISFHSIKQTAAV
T4 sequence (P24387 whole entry): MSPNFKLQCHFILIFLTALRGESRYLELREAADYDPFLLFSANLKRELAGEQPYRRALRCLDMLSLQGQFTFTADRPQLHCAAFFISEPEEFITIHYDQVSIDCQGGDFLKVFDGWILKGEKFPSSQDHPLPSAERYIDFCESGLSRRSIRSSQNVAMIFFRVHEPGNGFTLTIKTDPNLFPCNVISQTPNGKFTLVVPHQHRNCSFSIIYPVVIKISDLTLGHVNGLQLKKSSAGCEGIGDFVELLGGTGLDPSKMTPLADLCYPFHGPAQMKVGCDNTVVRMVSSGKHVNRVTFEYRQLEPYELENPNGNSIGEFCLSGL

[12] = biological target: T4, Corticotropin-releasing factor receptor 2/Corticotropin-releasing factor-binding protein; assay: activators of CRF receptor 2 with binding protein – uHTS hits, confirmation (AID 602473); format: functional; conditions: read-out: EC50_Mean
[13] = inhibitors of HIV Env-driven cell fusion, dose response, cherry-pick (AID 652057); format: functional, cell-based
[14] = ZM109 Env clade C HIV-1 fusion inhibitors, dose response, HeLa effector, CEM target cells, luciferase, cherry-pick (AID 652058); format: functional, cell-based
[15] = off-target signal loss in HeLa-CEM21 co-culture – HeLa F-luc CTL cells, cherry-picked, counter-screen for HIV-1 Env fusion inhibitor project, dose response (AID 652040); format: functional, cell-based;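 further: potency for signal decrease marking cytotoxic or nonspecific inhibition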
[16] = biological target: Ras and Rab interactor 1/Tyrosine-protein kinase ABL1 (Homo sapiens, UniProt P00519+Q13671); format: functional;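 further: biochemical TR-FRET dose-response test measuring inhibition of binding between Rin1 and Abl proteins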
cells [17] = format: functional, cell-based
cells [18] = format: functional, cell-based; remark: listed apart in the source
[19] = biological target: T5, Calpain-2 catalytic subunit (Sus scrofa, UniProt P43367); assay: pig calpain II inhibitor potency, dose response, biochemical, fluorogenic peptide substrate (AID 1420); format: functional
T5 sequence (P43367 whole entry): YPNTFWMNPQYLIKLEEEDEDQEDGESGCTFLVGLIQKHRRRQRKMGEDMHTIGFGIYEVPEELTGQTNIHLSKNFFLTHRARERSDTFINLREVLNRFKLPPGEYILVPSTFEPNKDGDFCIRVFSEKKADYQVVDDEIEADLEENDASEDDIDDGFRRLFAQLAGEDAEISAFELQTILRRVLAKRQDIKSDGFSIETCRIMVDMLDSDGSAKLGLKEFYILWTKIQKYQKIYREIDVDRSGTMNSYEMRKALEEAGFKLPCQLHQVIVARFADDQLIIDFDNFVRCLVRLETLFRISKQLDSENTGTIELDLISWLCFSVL

Cytochrome P450 2D6 = Cytochrome P450 2D6 (Homo sapiens, UniProt P10635);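 further: CYP2D6 member of a cytochrome P450 panel assay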
Cytochrome P450 2C9 = Cytochrome P450 2C9 (Homo sapiens, UniProt P11712)
[20] = biological target: T6, Histone-lysine N-methyltransferase NSD2 (Homo sapiens, UniProt O96028); format: biochemical
T6 sequence (O96028 whole entry): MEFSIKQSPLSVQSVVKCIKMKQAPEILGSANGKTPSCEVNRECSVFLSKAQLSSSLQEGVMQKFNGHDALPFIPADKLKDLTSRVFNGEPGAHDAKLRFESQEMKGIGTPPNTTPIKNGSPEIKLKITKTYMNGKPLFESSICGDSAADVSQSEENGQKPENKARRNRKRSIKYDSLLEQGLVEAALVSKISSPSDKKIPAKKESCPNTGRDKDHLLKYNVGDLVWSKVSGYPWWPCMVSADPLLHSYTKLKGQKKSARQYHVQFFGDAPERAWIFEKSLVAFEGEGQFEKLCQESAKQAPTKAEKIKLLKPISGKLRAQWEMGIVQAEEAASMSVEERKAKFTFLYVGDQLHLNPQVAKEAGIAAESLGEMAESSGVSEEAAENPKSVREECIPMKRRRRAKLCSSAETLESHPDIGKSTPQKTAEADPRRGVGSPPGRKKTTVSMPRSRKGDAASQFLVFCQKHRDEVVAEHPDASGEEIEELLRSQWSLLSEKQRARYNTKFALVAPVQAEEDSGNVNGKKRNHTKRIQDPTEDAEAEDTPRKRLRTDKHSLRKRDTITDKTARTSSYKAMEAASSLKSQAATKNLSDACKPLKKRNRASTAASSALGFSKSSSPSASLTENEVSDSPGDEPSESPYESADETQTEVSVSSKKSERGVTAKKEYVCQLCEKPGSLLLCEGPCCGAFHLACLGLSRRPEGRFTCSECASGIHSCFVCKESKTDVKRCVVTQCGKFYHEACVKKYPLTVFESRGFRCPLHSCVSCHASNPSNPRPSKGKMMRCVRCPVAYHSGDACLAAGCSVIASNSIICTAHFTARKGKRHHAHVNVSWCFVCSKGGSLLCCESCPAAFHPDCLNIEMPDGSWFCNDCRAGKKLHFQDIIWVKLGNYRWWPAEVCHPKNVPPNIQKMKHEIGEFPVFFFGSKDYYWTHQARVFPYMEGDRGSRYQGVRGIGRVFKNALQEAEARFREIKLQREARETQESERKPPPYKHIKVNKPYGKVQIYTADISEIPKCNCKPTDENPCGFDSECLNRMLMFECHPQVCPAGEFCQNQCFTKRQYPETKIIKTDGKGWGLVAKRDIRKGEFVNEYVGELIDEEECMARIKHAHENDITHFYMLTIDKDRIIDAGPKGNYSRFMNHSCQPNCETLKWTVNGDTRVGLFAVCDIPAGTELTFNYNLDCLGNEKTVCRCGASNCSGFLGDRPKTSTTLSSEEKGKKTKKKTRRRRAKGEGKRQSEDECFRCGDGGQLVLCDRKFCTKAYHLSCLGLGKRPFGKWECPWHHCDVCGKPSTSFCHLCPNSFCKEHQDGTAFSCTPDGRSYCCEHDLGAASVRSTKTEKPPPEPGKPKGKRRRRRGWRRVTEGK

T1 sequence (P49327 whole entry, the tested form may be a part): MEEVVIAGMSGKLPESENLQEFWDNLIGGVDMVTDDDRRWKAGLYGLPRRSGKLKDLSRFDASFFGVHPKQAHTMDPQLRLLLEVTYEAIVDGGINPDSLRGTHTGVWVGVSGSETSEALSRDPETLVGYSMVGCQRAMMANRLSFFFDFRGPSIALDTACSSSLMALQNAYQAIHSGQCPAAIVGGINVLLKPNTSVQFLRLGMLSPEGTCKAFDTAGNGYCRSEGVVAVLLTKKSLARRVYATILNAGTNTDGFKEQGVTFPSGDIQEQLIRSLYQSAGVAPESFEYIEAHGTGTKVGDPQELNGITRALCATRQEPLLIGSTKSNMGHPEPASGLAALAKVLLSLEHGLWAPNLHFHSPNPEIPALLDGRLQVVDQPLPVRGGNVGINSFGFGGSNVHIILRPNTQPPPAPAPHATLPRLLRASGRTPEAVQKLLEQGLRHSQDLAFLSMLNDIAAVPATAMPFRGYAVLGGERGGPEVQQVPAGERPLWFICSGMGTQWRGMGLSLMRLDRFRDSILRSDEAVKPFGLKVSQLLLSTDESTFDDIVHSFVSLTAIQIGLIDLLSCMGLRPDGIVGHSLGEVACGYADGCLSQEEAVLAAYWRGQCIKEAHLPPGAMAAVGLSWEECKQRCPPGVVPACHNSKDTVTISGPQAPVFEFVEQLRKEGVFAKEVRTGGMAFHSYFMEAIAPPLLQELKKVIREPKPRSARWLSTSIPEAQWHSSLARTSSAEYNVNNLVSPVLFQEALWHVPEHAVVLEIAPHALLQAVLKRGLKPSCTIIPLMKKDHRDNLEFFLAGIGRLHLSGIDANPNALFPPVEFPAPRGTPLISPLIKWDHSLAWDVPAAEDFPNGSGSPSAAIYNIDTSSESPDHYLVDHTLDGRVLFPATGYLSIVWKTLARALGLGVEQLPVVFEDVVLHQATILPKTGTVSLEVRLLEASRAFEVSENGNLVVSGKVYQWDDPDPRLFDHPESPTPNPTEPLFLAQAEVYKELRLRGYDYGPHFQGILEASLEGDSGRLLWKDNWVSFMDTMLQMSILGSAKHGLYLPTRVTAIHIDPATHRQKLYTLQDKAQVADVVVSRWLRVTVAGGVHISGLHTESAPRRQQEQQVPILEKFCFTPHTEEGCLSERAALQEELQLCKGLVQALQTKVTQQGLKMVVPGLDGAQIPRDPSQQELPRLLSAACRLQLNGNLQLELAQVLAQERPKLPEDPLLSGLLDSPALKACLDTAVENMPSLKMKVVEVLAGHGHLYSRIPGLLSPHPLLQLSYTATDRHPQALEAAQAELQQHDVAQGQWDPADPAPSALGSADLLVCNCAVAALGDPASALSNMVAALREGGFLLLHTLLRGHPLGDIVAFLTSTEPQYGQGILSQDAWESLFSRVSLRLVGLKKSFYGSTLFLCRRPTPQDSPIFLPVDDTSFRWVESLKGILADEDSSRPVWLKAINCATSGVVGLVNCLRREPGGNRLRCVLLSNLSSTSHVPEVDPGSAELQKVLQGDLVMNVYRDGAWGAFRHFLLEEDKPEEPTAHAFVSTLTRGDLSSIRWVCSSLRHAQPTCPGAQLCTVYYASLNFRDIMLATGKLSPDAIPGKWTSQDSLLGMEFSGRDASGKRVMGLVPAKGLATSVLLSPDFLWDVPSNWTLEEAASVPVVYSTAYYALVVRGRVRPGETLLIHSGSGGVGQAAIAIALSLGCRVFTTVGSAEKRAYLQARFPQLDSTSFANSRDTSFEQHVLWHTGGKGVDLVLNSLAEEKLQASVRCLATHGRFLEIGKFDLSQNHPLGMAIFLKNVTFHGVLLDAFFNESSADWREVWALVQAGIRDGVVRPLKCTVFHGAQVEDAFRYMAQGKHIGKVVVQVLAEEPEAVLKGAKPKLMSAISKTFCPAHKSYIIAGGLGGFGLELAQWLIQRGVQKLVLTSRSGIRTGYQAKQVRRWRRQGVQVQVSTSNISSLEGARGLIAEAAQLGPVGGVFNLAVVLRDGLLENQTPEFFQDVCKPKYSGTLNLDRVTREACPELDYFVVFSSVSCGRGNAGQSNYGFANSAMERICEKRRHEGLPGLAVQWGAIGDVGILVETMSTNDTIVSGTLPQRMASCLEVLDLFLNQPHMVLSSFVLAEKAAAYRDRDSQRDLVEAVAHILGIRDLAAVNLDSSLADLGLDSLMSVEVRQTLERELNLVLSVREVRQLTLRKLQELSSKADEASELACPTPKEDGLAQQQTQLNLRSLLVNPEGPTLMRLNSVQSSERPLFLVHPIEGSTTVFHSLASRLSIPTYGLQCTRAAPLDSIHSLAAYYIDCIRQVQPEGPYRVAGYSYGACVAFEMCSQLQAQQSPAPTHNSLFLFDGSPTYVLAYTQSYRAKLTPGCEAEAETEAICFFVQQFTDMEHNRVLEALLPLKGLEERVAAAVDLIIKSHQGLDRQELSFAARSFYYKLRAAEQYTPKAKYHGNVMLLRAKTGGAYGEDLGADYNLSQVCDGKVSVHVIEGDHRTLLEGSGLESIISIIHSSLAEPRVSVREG
Chain of Ras and Rab interactor 1/Tyrosine-protein kinase ABL1 (P00519 whole entry): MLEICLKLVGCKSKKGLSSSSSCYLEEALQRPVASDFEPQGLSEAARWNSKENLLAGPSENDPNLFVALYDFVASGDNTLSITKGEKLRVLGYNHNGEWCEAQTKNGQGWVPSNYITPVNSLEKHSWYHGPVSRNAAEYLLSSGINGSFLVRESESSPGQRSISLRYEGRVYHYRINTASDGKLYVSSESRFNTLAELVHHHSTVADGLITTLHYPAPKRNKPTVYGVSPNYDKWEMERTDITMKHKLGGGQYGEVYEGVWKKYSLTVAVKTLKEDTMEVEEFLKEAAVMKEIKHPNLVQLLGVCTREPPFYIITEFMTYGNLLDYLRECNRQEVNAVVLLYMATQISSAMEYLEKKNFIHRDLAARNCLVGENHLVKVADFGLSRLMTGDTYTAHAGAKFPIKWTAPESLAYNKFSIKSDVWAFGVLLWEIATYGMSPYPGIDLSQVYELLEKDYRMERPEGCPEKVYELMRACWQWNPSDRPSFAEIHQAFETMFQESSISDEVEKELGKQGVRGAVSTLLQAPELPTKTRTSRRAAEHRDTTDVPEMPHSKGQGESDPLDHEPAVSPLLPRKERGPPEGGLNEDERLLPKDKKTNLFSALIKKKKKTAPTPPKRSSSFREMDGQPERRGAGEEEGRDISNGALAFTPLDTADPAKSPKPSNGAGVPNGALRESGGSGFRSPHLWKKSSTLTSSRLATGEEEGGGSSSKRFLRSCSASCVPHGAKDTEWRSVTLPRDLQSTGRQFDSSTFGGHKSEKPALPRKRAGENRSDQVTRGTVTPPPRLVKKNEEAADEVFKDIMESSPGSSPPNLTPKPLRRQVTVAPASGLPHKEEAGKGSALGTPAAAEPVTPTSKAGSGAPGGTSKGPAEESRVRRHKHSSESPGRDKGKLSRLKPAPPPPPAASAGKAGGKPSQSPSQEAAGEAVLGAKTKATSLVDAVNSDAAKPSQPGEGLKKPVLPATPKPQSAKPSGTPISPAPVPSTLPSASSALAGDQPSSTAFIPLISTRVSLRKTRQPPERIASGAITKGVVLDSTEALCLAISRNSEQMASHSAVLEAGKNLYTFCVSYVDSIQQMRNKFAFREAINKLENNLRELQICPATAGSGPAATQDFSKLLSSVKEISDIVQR
Chain of Ras and Rab interactor 1/Tyrosine-protein kinase ABL1 (Q13671 whole entry): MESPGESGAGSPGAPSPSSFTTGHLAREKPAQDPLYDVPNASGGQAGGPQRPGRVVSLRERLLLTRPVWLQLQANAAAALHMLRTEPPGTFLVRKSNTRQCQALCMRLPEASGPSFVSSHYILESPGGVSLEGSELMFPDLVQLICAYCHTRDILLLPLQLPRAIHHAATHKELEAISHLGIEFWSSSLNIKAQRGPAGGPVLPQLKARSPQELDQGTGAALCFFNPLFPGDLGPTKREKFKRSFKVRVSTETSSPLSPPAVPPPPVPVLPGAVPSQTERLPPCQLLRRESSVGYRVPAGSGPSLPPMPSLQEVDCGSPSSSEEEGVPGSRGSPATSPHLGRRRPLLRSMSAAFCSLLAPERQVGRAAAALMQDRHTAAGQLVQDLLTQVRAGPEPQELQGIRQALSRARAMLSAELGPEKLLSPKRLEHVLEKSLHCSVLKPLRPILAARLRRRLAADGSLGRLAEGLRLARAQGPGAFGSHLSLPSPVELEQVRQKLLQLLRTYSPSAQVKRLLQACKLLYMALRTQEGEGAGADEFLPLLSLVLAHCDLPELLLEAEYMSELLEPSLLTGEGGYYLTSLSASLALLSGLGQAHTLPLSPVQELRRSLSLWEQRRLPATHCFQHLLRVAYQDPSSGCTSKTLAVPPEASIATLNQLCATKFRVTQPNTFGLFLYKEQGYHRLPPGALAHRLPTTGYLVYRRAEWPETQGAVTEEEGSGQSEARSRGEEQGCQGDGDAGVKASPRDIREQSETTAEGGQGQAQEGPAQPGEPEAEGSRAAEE
Chain of Cytochrome P450 2C9 (P11712 whole entry): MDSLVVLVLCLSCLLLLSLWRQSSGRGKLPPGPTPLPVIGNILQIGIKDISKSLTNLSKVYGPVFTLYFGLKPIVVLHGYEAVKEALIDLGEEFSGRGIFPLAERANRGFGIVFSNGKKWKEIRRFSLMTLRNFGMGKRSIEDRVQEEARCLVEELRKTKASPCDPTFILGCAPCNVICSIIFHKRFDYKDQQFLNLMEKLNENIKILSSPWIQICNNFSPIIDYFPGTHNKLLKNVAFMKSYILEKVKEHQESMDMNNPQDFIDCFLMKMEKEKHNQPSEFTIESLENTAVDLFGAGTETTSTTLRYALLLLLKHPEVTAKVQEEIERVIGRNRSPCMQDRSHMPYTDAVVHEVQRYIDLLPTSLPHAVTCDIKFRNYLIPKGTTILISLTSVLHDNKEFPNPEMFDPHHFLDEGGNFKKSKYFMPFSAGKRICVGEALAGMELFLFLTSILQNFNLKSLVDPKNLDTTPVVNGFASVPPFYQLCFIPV

Structure (SMILES): COc1cc(-c2c(-c3cc(OC)c(OC)c(OC)c3)noc2C)ccc1F
- IC50 [1]: 75.9 µM (inactive)
- AC50 [2]: 21.3 µM (active)
- AC50 (Paired box protein Pax-8): 2.78 µM (active)
- AC50 [3]: 29.7 µM (active)

Structure (SMILES): COc1cc(/C=N/N(C)c2ccccc2)cc(Cl)c1O
- CC50 [4]: > 40 µM (active)
- IC50 (Fatty acid synthase [5]): 4.5 µM (active)
- CC50 [6]: 100 µM (active)
- IC50 [7]: 38.2 µM (active)
- IC50 (Fatty acid synthase [8]): 5.46 µM (active)

Structure (SMILES): Cc1ccccc1Cn1cccc1/C=C1/C(=N)N2C=CSC2=NC1=O
- EC50 [9]: > 99 µM (inactive)
- EC50 [10]: > 99 µM (inactive)
- IC50 [11]: > 47.1 µM (inactive)
- EC50 [12]: > 53 µM (inactive)

Structure (SMILES): CCOC(=O)N1CCN(C(=O)C[C@H]2C[C@@]3(C(=O)OC)C(=C[C@H](C(C)(C)C)O[C@@H]3C)N(CCC3=CCCCC3)C2=O)CC1
- AC50 [13]: 2.49 µM (active)
- AC50 [2]: 25.6 µM (active)
- AC50 [14]: 3.45 µM (active)
- AC50 [15]: 4.21 µM (active)
- AC50 [3]: 3.46 µM (active)

Structure (SMILES): C[C@@H]1CCCCO[C@@H](CN(C)S(=O)(=O)c2cccs2)[C@@H](C)CN([C@H](C)CO)C(=O)c2cc(NS(=O)(=O)c3ccccc3)ccc2O1
- IC50 [16]: 1.27 µM (active)

Structure (SMILES): CCCOc1ccc(/C=N/NC(=O)CSc2ccccn2)cc1OC
- EC50 (cells [17]): > 350 µM (not active)
- EC50 (cells [18]): > 350 µM (not active)
- IC50 [16]: 12 µM (inactive)

Structure (SMILES): CCC(C(=O)c1ccccc1)N(C(=O)c1ccccc1Cl)N1C(=O)C2C3C=CC(C3)C2C1=O (stereo not given)
- IC50 [19]: 24.3 µM (not active)
- AC50 [13]: 4.55 µM (active)
- AC50 [14]: 6.01 µM (active)
- AC50 [15]: 7.95 µM (active)
- AC50 [3]: 27.5 µM (active)
- AC50 (Cytochrome P450 2D6): 7.08 µM (inconclusive)
- AC50 (Cytochrome P450 2C9): 10 µM (inconclusive)

Structure (SMILES): CC(C)(C)n1nnnc1C(c1cccnc1)N(Cc1ccccc1)Cc1cccs1 (stereo not given)
- AC50 [13]: 5.51 µM (active)
- AC50 [2]: 52.5 µM (active)
- AC50 [14]: 7 µM (active)
- AC50 [15]: 8.29 µM (active)
- AC50 [3]: 17.5 µM (active)

Structure (SMILES): CCOC(=O)/C(=N\Nc1ccc(C(C)=O)cc1)c1csc(Nc2ccccc2)n1
- EC50 [9]: > 99 µM (inactive)
- EC50 [10]: 38.1 µM (inactive)
- EC50 [12]: 18.3 µM (active)

Structure (SMILES): Cc1ccc(-c2cnc(NCc3cc4c(cc3[N+](=O)[O-])OCO4)n2C)cc1C
- CC50 [6]: 100 µM (active)
- IC50 [7]: 77.6 µM (active)

Structure (SMILES): O=C1NC(=S)NC(=O)C1=NNc1cc(S(=O)(=O)Nc2ccc(Cl)cc2)ccc1Cl
- AC50 [20]: > 20 µM (inactive)

Reference: ChEMBL document CHEMBL1201862, “PubChem BioAssay data set” (2004)
